Experimental findings from patent US10080729B2, “Composition for use in the treatment of intervertebral misalignment” (STAYBLE THERAPEUTICS AB, priority 2015, dated 2018) are described below.

The subject of series [1] is intervertebral disc L1/2 to L3/4. Description: Disc height on post-mortem X-ray (Example 3). To be noted: 120 or 240 mg/ml lactic acid + iohexol, 0.2 ml; both doses; 2, 28 and 84 days; FIG. 16. It is filed as in vivo, pig. From the text: (§1) Eleven pigs were anesthetized and placed on their right side. Through a lateral incision the discs to be injected were exposed. […] After 2, 28 or 84 days the pigs were killed and the lumbar spine was harvested. All musculature was removed as well as the facet joints and ligamentum flavum between the L1/2, L2/3 and L3/4 vertebrae. The following endpoints were used: • A. X-ray pictures were taken at the day of injection and at the harvest day to ascertain that the injection was correctly placed and to determine if the discs were radio-opaque after 2, 28 and 84 days. • B. The X-rays taken post-mortem were used to measure disc height. • C. The sectioned discs were photographed and the degree of fibrotisation was visually evaluated.

The subject of a further series is pig. The experiment in a line: Tolerability and injection site observation (Example 1). It is filed as in vivo. To be noted: two pigs. As to the method:
Two pigs were anesthetized and placed on their right side. Access to the L4-5 intervertebral disc was obtained through a lateral incision between the lowest rib and the iliac crest on the left side of each pig. Thereafter, the L3-4 intervertebral disc was incised with a scalpel.
The composition was injected in a single step at a single occasion.
At harvest, the pigs were killed.
The injection site was observed by the naked eye. […] The segment of the vertebral column extending from the lumbar vertebra L2 to the sacral vertebra S1 was removed. The facet joints were removed, thus allowing full flexibility of the discs with no restraints from other structures.

Series [2] concerns intervertebral disc L1/2 to L3/4. Description: Visual evaluation of fibrotisation of the nucleus space (Example 3). It is filed as in vivo, pig.
Excerpt: as §1

Series [3] has as its system nucleus pulposus of the L3-4 intervertebral disc. The experiment in a line: Flexion stiffness of the injected intervertebral disc (Example 1). Format: in vivo, pig. The note with it: injected disc L 3-4; 0.2 mL of 1.34 mol/L lactic acid into nucleus pulposus; seven days after injection; mean ± SD; two pigs. The procedure:
Access to the L4-5 intervertebral disc was obtained through a lateral incision between the lowest rib and the iliac crest on the left side of each pig. Thereafter, the L3-4 intervertebral disc was incised with a scalpel. […] The composition was injected in a single step at a single occasion.

For series [4] the test system is unchanged. Description: Dimension of the disc space after administration (Example 1). It is filed as in vivo, pig. To be noted: injected disc L 3-4; 0.2 mL of 1.34 mol/L lactic acid; seven days after injection; mean ± SD. The procedure:
110. performing a cross-section of the discs and measuring the length (anterio-posterior direction) and the width (bilateral direction) of the disc space. Two pigs were anesthetized and placed on their right side. Access to the L4-5 intervertebral disc was obtained through a lateral incision between the lowest rib and the iliac crest on the left side of each pig. Thereafter, the L3-4 intervertebral disc was incised with a scalpel. […] The composition was injected in a single step at a single occasion. The intervertebral discs (L2-3, L3-4, L4-5) were cross-sectioned and the length of the disc space (anterio-posterior direction) and the width (bilateral direction) of the disc space were measured by calipers. In FIGS. 5 and 6, an intervertebral disc is schematically shown in cross-section. The intervertebral disc comprises the annulus fibrosus 10, and a disc space defined by the annulus fibrosus and comprising the nucleus pulposus 11.

`CC(O)C(=O)O` (stereo not drawn) [lactic acid]: in series [1], the “Disc height, discs injected with lactic acid versus placebo (X-ray)” value is reported as “no difference in height”. The “Adverse reaction such as decreased mobility or vocalization” value with pig (0.2 mL of 1.34 mol/L lactic acid intradiscal, period of seven days until harvest) is recorded as “no adverse reaction”. Also, the “Adverse reaction at the injection site (bleedings, inflammation or necrosis), naked eye” value in the series with pig (at harvest seven days after injection) is given as “No adverse reaction at the injection site”. For the same compound, the “Fibrotisation of the nucleus space” value in series [2] (84 days after injection, some discs, FIG. 17a) was “fibrosis was close to complete”; in series [2] (after 2 days, 120 or 240 mg/ml lactic acid, 0.2 ml, some discs), “tendency to fibrotisation”; in series [2] (after 28 days, 120 or 240 mg/ml lactic acid, 0.2 ml) it was “fibrotisation was evident”. For the same compound, the “Difference in distance between transverse processes before and upon full lateral flexion” value in series [3] is 0.3 ± 0.6 mm. Further, the “Average antero-posterior length of the disc space” value in series [4] was 13.5 ± 1.3 mm. The “Average bilateral width of the disc space” value in series [4] is 4.0 ± 1.4 mm.
